In US20240262801A1, “COMPOUNDS HAVING 5-(2-FLUORO-6-HYDROXYPHENYL)-1,2,5-THIADIAZOLIDIN-3-ONE 1,1-DIOXIDE AS INHIBITORS OF PROTEIN KINASE PHOSPHATASE ENZYMES” (Ness Therapeutics, Inc., priority 2021, published 2024):
Where two headings read alike, the source gives them in different places.

Columns and labels:
[1] = tested on: B16F10 mouse melanoma cells; experiment: Tumor cells B16F10 cellular growth IFNγ-induced inhibition assay (CellTiter-Glo); assay type: cell-based; conditions: for IC50: B16-F10, 72 h, 3 days incubation; for inhibition at 100 µM: B16-F10, B16F10, 100 μM compound
Procedure, shortened: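 Cells were seeded at 500/well in DMEM + 10% FBS and allowed to adhere overnight at 37° C, 5% CO2. Compounds at 1× final were added via medium with or without IFNγ (5 ng/ml in the dilution medium). After 3 days, CellTiter-Glo luminescence gave % growth inhibition versus the DMSO/IFNγ control, from which IC50 was derived.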

GST-tagged PTPN2 protein = molecular target: T1, GST-tagged PTPN2 protein (Homo sapiens, UniProt P17706); experiment: Primary assay of PTPN2 enzymatic activity inhibition (DiFMUP fluorescence); assay type: biochemical; conditions: DiFMUP substrate 2 μM, 60 min at RT
T1 construct: purchased ActiveMotif 31592
T1 sequence (P17706 with tags, fused parts or gaps): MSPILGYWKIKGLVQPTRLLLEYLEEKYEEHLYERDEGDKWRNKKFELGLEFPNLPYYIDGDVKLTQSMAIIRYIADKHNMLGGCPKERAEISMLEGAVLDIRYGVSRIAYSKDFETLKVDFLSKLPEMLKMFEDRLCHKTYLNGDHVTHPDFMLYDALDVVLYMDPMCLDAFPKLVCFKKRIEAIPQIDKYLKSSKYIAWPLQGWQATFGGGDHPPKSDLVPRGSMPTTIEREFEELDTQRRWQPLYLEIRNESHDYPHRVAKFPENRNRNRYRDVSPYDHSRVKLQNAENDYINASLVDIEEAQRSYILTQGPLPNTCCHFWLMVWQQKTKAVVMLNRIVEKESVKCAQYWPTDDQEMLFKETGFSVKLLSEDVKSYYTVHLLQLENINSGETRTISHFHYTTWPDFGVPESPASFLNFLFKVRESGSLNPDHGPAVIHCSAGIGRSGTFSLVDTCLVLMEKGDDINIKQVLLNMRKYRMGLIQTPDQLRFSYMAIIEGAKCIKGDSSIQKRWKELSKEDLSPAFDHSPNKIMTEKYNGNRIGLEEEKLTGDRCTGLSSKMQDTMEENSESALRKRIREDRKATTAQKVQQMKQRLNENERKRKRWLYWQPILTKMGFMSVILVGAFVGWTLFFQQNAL
Procedure, shortened: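 Enzyme at 0.004 ng/μL final in 50 mM HEPES pH 7.2-7.4, 2 mM EDTA, 100 mM NaCl, BSA, 6 mM DTT; compounds preincubated 10 min at RT. DiFMUP added at 2 μM final, 60 min at RT, fluorescence read at ex 360/em 450 nm. IC50 calculated from % inhibition.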

[2] = B16F10, + IFNγ, read-out: IC50 + IFNγ
[3] = B16F10, no IFNγ, read-out: IC50 no IFNγ
[4] = + IFNγ, read-out: % Growth Inhibition at 100 μM + IFNγ
[5] = no IFNγ, read-out: % Growth Inhibition at 100 μM no IFNγ

| SMILES | IC50 [1, 2] [µM] | IC50 [1, 3] [µM] | IC50 (GST-tagged PTPN2 protein) [nM] | inhibition at 100 µM [1, 4] [%] | inhibition at 100 µM [1, 5] [%] |
| --- | --- | --- | --- | --- | --- |
| O=C1CN(c2c(O)cc(-c3ccccc3F)cc2F)S(=O)(=O)N1 [Example 7, 5-(2′,3-difluoro-5-hydroxybiphenyl-4-yl)-1,2,5-thiadiazolidin-3-one 1,1-dioxide] | 50 to 100 | ≥ 100 | 100 to 500 | 50 to 75 | 10 to 50 |
| Cc1cccc(S(=O)(=O)Nc2cc(O)c(N3CC(=O)NS3(=O)=O)c(F)c2)c1 [Example 22, N-[4-(1,1-dioxido-4-oxo-1,2,5-thiadiazolidin-2-yl)-3-fluoro-5-hydroxyphenyl]-3-methylbenzenesulfonamide] | 10 to 50 | ≥ 100 | 10 to 50 | 50 to 75 | 10 to 50 |
| COc1ccc(C(=O)Nc2cc(O)c(N3CC(=O)NS3(=O)=O)c(F)c2)cc1OC [Example 14, N-[4-(1,1-dioxido-4-oxo-1,2,5-thiadiazolidin-2-yl)-3-fluoro-5-hydroxyphenyl]-3,4-dimethoxybenzamide] | 10 to 50 | ≥ 100 | 100 to 500 | 50 to 75 | 10 to 50 |
| Cc1c(S(=O)(=O)Nc2cc(O)c(N3CC(=O)NS3(=O)=O)c(F)c2)cnn1C(F)F [Example 27, 1-(difluoromethyl)-N-[4-(1,1-dioxido-4-oxo-1,2,5-thiadiazolidin-2-yl)-3-fluoro-5-hydroxyphenyl]-5-methyl-1H-pyrazole-4-sulfonamide] | ≥ 100 | ≥ 100 | 50 to 100 | 10 to 50 | 10 to 50 |
| O=C1CN(c2c(O)cc(NC(=O)c3ccccc3)cc2F)S(=O)(=O)N1 [Example 13, N-[4-(1,1-dioxido-4-oxo-1,2,5-thiadiazolidin-2-yl)-3-fluoro-5-hydroxyphenyl]benzamide] | ≥ 100 | ≥ 100 | 100 to 500 | 10 to 50 | 10 to 50 |
| CCCCS(=O)(=O)Nc1cc(O)c(N2CC(=O)NS2(=O)=O)c(F)c1 [Example 28, N-[4-(1,1-dioxido-4-oxo-1,2,5-thiadiazolidin-2-yl)-3-fluoro-5-hydroxyphenyl]butane-1-sulfonamide] | 50 to 100 | ≥ 100 | 100 to 500 | 50 to 75 | 10 to 50 |
| O=C1CN(c2c(O)cc(-c3cccc(F)c3)cc2F)S(=O)(=O)N1 [Example 2, 5-(3,3′-difluoro-5-hydroxybiphenyl-4-yl)-1,2,5-thiadiazolidin-3-one 1,1-dioxide] | 50 to 100 | ≥ 100 | 100 to 500 | 50 to 75 | 10 to 50 |

More lines, main results first:

| IC50 [1, 2] [µM] | IC50 [1, 3] [µM] | IC50 (GST-tagged PTPN2 protein) [nM] | SMILES | inhibition at 100 µM [1, 4] [%] | inhibition at 100 µM [1, 5] [%] |
| --- | --- | --- | --- | --- | --- |
| ≥ 100 | ≥ 100 | < 5 | O=C1CN(c2c(O)cc(NC(=O)Nc3cccc(Cl)c3)cc2F)S(=O)(=O)N1 [Example 46, 1-(3-chlorophenyl)-3-[4-(1,1-dioxido-4-oxo-1,2,5-thiadiazolidin-2-yl)-3-fluoro-5-hydroxyphenyl]urea] | 10 to 50 | 10 to 50 |
| 5 to 10 | ≥ 100 | < 5 | O=C1CN(c2c(O)cc(NC(=O)N[C@H]3CC[C@H](CO)CC3)cc2F)S(=O)(=O)N1 [Example 107, 1-[3-fluoro-5-hydroxy-4-(1,1,4-trioxo-1,2,5-thiadiazolidin-2-yl)phenyl]-3-[4-(hydroxymethyl)-cyclohexyl]urea] | 50 to 75 | 10 to 50 |
| ≥ 100 | ≥ 100 | 5 to 10 | O=C1CN(c2c(O)cc(NC(=O)Nc3ccccc3Cl)cc2F)S(=O)(=O)N1 [Example 48, 1-(2-chlorophenyl)-3-[4-(1,1-dioxido-4-oxo-1,2,5-thiadiazolidin-2-yl)-3-fluoro-5-hydroxyphenyl]urea] | 10 to 50 | 10 to 50 |
| ≥ 100 | ≥ 100 | 5 to 10 | O=C1CN(c2c(O)cc(NC(=O)Nc3ccc(F)cc3)cc2F)S(=O)(=O)N1 [Example 53, 1-[4-(1,1-dioxido-4-oxo-1,2,5-thiadiazolidin-2-yl)-3-fluoro-5-hydroxyphenyl]-3-(4-fluorophenyl)urea] | 10 to 50 | 10 to 50 |
| 10 to 50 | ≥ 100 | < 5 | O=C1CN(c2c(O)cc(NC(=O)Nc3cccc(F)c3)cc2F)S(=O)(=O)N1 [Example 54, 1-[4-(1,1-dioxido-4-oxo-1,2,5-thiadiazolidin-2-yl)-3-fluoro-5-hydroxyphenyl]-3-(3-fluorophenyl)urea] | 50 to 75 | 10 to 50 |
| 10 to 50 | ≥ 100 | 5 to 10 | CC(C)C[C@@H](CO)NC(=O)Nc1cc(O)c(N2CC(=O)NS2(=O)=O)c(F)c1 [Example 110, 1-[3-fluoro-5-hydroxy-4-(1,1,4-trioxo-1,2,5-thiadiazolidin-2-yl)phenyl]-3-[(1S)-1-(hydroxymethyl)-3-methyl-butyl]urea] | 50 to 75 | 10 to 50 |
| 50 to 100 | ≥ 100 | < 5 | O=C1CN(c2c(O)cc(NC(=O)Nc3ccc(Cl)cc3)cc2F)S(=O)(=O)N1 [Example 47, 1-(4-chlorophenyl)-3-[4-(1,1-dioxido-4-oxo-1,2,5-thiadiazolidin-2-yl)-3-fluoro-5-hydroxyphenyl]urea] | 50 to 75 | 10 to 50 |
| 10 to 50 | ≥ 100 | < 5 | COc1ccc(NC(=O)Nc2cc(O)c(N3CC(=O)NS3(=O)=O)c(F)c2)cc1OC [Example 59, 1-(3,4-dimethoxyphenyl)-3-[4-(1,1-dioxido-4-oxo-1,2,5-thiadiazolidin-2-yl)-3-fluoro-5-hydroxyphenyl]urea] | 50 to 75 | 10 to 50 |
| 10 to 50 | ≥ 100 | < 5 | O=C1CN(c2c(O)cc(NC(=O)NC34CC(CO)(C3)C4)cc2F)S(=O)(=O)N1 [Example 111, 1-[3-fluoro-5-hydroxy-4-(1,1,4-trioxo-1,2,5-thiadiazolidin-2-yl)phenyl]-3-[3-(hydroxymethyl)-1-bicyclo[1.1.1]pentanyl]urea] | 75 to 100 | 10 to 50 |
| ≥ 100 | ≥ 100 | 10 to 50 | CC(C)(C)OC(=O)N1CCC(NC(=O)Nc2cc(O)c(N3CC(=O)NS3(=O)=O)c(F)c2)CC1 [Example 98, tert-butyl 4-[[3-fluoro-5-hydroxy-4-(1,1,4-trioxo-1,2,5-thiadiazolidin-2-yl)phenyl]carbamoyl-amino]piperidine-1-carboxylate] | 10 to 50 | 10 to 50 |
